Like-named read-outs stand apart in the source and are kept apart here.
Tested on: cancer cell lines
Assay: Cancer cell proliferation activity (CellTiterGlo, 72 h)
Type: cell-based
Conditions: 72 h, 72 h, read-out: IC50
Procedure, shortened: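 Cells seeded overnight at 37 °C, then dosed with compound at 0.1% final DMSO and incubated 72 h at 37 °C (5% or 10% CO2 by medium).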

SMILES: CC(C)C[C@]1(CO)O[C@@H](n2cnc3c(N)nc(F)nc32)C[C@@H]1O [Cpd. No. 133, (2R,3S,5R)-5-(6-amino-2-fluoro-9H-purin-9-yl)-2-(hydroxymethyl)-2-isobutyltetrahydrofuran-3-ol]
- IC50 (5637 cell line (bladder)): 4.09 µM
- IC50 (CLS439 cell line (bladder)): > 50 µM
- IC50 (HS729 cell line (muscle)): 8.57 µM
- IC50 (HSS78T cell line): 3.71 µM
- IC50 (JAR cell line (placenta)): 3.66 µM
- IC50 (SKMELS cell line): 4.92 µM
- IC50 (Homo sapiens, 22Rv1, 72 h, 22RV1 cell line (prostate)): > 50 µM
- IC50 (Homo sapiens, 786-0, 72 h, 786O cell line (kidney)): 2.59 µM
- IC50 (Homo sapiens, A204, 72 h, A204 cell line (muscle)): 4.91 µM
- IC50 (Homo sapiens, A549, 72 h, A549 cell line): 4.96 µM
- IC50 (Homo sapiens, A673, 72 h, A673 cell line (bone)): > 50 µM
- IC50 (Homo sapiens, A2780, 72 h, A2780 cell line (ovary)): 4.54 µM
- IC50 (Homo sapiens, A-375, 72 h, A375 cell line (skin)): 3.67 µM
- IC50 (Homo sapiens, A-431, 72 h, A431 cell line (skin)): 2.29 µM
- IC50 (Homo sapiens, ACHN, ACHN cell line (kidney)): > 50 µM
- IC50 (Homo sapiens, ASPC1, 72 h, ASPC1 cell line (pancreas)): 2.99 µM
- IC50 (Homo sapiens, BT-20, 72 h, BT20 cell line (breast)): 4.14 µM
- IC50 (Homo sapiens, BXPC-3, 72 h, BXPC3 cell line (pancreas)): 7.13 µM
- IC50 (Homo sapiens, C-33-A, C33A cell line (cervical)): 4.28 µM
- IC50 (Homo sapiens, CAKI-1, 72 h, CAKI1 cell line (kidney)): 0.41 µM
- IC50 (Homo sapiens, COLO 205, 72 h, COLO205 cell line (colon)): 5.86 µM
- IC50 (Homo sapiens, COLO-678, 72 h, COLO678 cell line (colon)): 9.54 µM
- IC50 (Homo sapiens, Ca-Ski, CASKI cell line (cervical)): 2.33 µM
- IC50 (Homo sapiens, Caco-2, 72 h, CACO2 cell line (colon)): 5.32 µM
- IC50 (Homo sapiens, Calu-6, 72 h, CALU6 cell line (lung)): 3.07 µM
- IC50 (Homo sapiens, DLD-1, 72 h, DLD1 cell line (colon)): > 50 µM
- IC50 (Homo sapiens, DU-145, 72 h, DU145 cell line (prostate)): 3.3 µM
- IC50 (Homo sapiens, EFO-21, 72 h, EFO21 cell line (ovary)): 3.75 µM
- IC50 (Homo sapiens, EJ-28, 72 h, EJ28 cell line (bladder)): 5.11 µM
- IC50 (Homo sapiens, Granta-519, 72 h, GRANTA-519 cell line (hematological)): > 50 µM
- IC50 (Homo sapiens, HCT-15, 72 h, HCT15 cell line (colon)): > 50 µM
- IC50 (Homo sapiens, HCT-116, 72 h, HCT116 cell line (colon)): 3.96 µM
- IC50 (Homo sapiens, HEK293, 72 h, HEK293 cell line (kidney)): 5.3 µM
- IC50 (Homo sapiens, HL-60, 72 h, HL-60 cell line (hematological)): 5.42 µM
- IC50 (Homo sapiens, HT-29, 72 h, HT29 cell line (colon)): 2.16 µM
- IC50 (Homo sapiens, HT-1080, 72 h, HT1080 cell line (connective tissue)): > 50 µM
- IC50 (Homo sapiens, HeLa, HELA cell line (cervical)): 2.73 µM
- IC50 (Homo sapiens, HepG2, 72 h, HEPG2 cell line (liver)): 3.32 µM
- IC50 (Homo sapiens, IGROV-1, 72 h, IGROV1 cell line (ovary)): 2.72 µM
- IC50 (Homo sapiens, IMR-90, 72 h, IMR.90 cell line): 2.76 µM
- IC50 (Homo sapiens, J82, 72 h, J82 cell line (bladder)): 3.18 µM
- IC50 (Homo sapiens, JEG-3, 72 h, JEG3 cell line (placenta)): 3.36 µM
- IC50 (Homo sapiens, JIMT-1, 72 h, JIMT1 cell line (breast)): 1.43 µM
- IC50 (Homo sapiens, K562, 72 h, K-562 cell line (hematological)): > 50 µM
- IC50 (Homo sapiens, Kasumi 1, 72 h, KASUMI-1 cell line (hematological)): 1.54 µM
- IC50 (Homo sapiens, L-363, 72 h, L-363 cell line (hematological)): 3.16 µM
- IC50 (Homo sapiens, LoVo, LOVO cell line (colon)): 3.61 µM
- IC50 (Homo sapiens, MCF7, 72 h, MCF7 cell line (breast)): > 50 µM
- IC50 (Homo sapiens, MDA-MB-231, 72 h, MDAMB231 cell line (breast)): > 50 µM
- IC50 (Homo sapiens, MDA-MB-435, 72 h, MDAMB435 cell line (skin)): > 50 µM
- IC50 (Homo sapiens, MDA-MB-436, 72 h, MDAMB436 cell line (breast)): 3.36 µM
- IC50 (Homo sapiens, MDA-MB-468, 72 h, MDAMB468 cell line (breast)): 2.58 µM
- IC50 (Homo sapiens, MG-63, 72 h, MG63 cell line (bone)): > 50 µM
- IC50 (Homo sapiens, MHH-ES-1, 72 h, MHHES1 cell line (bone)): 3.07 µM
- IC50 (Homo sapiens, MIA PaCa-2, 72 h, MIAPACA2 cell line (pancreas)): > 50 µM
- IC50 (Homo sapiens, MINO, MINO cell line (hematological)): 2.52 µM
- IC50 (Homo sapiens, MV4-11, 72 h, MV4-11 cell line (hematological)): 3.35 µM
- IC50 (Homo sapiens, NCI-H23, 72 h, NCI-H23 cell line (lung)): 3.33 µM
- IC50 (Homo sapiens, NCI-H82, 72 h, NCIH82 cell line (lung)): 3.4 µM
- IC50 (Homo sapiens, NCI-H292, 72 h, NCIH292 cell line (lung)): > 50 µM
- IC50 (Homo sapiens, NCI-H460, 72 h, NCIH460 cell line (lung)): 5.43 µM
- IC50 (Homo sapiens, OVCAR-3, 72 h, OVCAR3 cell line (ovary)): 1.92 µM
- IC50 (Homo sapiens, OVCAR-4, 72 h, OVCAR4 cell line (ovary)): 4.25 µM
- IC50 (Homo sapiens, PANC-1, 72 h, PANC1 cell line (pancreas)): > 50 µM
- IC50 (Homo sapiens, PC-3, 72 h, PC3 cell line (prostate)): 3.83 µM
- IC50 (Homo sapiens, PLC-PRF-5, 72 h, PLCPRF5 cell line (liver)): > 50 µM
- IC50 (Homo sapiens, Panc1005, 72 h, PANC1005 cell line (pancreas)): 2.98 µM
- IC50 (Homo sapiens, RD, RD cell line (muscle)): 4.61 µM
- IC50 (Homo sapiens, Ramos, RAMOS cell line (hematological)): 3.68 µM
- IC50 (Homo sapiens, SAOS-2, 72 h, SAOS2 cell line (bone)): 4.32 µM
- IC50 (Homo sapiens, SF-268, 72 h, SF268 cell line (brain)): > 50 µM
- IC50 (Homo sapiens, SF-295, 72 h, SF295 cell line (brain)): > 50 µM
- IC50 (Homo sapiens, SK-BR-3, 72 h, SKBR3 cell line (breast)): 1.09 µM
- IC50 (Homo sapiens, SK-HEP1, 72 h, SKHEP1 cell line (liver)): 5.13 µM
- IC50 (Homo sapiens, SK-LMS-1, 72 h, SKLMS1 cell line (uterus)): 4.34 µM
- IC50 (Homo sapiens, SK-MEL-28, 72 h, SKMEL28 cell line (skin)): 3.69 µM
- IC50 (Homo sapiens, SK-N-AS, SKNAS cell line (brain)): 2.78 µM
- IC50 (Homo sapiens, SK-N-SH, SKNSH cell line (brain)): 2.65 µM
- IC50 (Homo sapiens, SK-OV-3, 72 h, SKOV3 cell line (ovary)): 3.01 µM
- IC50 (Homo sapiens, SNB-75, 72 h, SNB75 cell line (brain)): 9.06 µM
- IC50 (Homo sapiens, SU-DHL10, 72 h, SU-DHL-10 cell line (hematological)): 4.84 µM
- IC50 (Homo sapiens, SU-DHL-6, 72 h, SU-DHL-6 cell line (hematological)): 3.29 µM
- IC50 (Homo sapiens, SW-620, 72 h, SW620 cell line (colon)): 3.44 µM
- IC50 (Homo sapiens, T-24, 72 h, T24 cell line (bladder)): 3.9 µM
- IC50 (Homo sapiens, TE-671, 72 h, TE671 cell line (muscle)): > 50 µM
- IC50 (Homo sapiens, THP-1, 72 h, THP-1 cell line (hematological)): > 50 µM
- IC50 (Homo sapiens, U2OS, U2OS cell line (bone)): 2.64 µM
- IC50 (Homo sapiens, U-87 MG, U87MG cell line (brain)): > 50 µM
- IC50 (Homo sapiens, UMUC3, 72 h, UMUC3 cell line (bladder)): > 50 µM
- IC50 (Homo sapiens, UO-31, 72 h, UO31 cell line (kidney)): 2.15 µM
- IC50 (Homo sapiens, WSU-NHL, WSU-NHL cell line (hematological)): 3.41 µM
- IC50 (MT-3, 72 h, MT3 cell line (breast)): 2.87 µM
- IC50 (NCI-H358M, NCIH358M cell line (lung)): 2.68 µM
- IC50 (PBMC, PBMC (hematological)): > 50 µM
- IC50 (RD-ES, RDES cell line (bone)): 3.07 µM

From US20250215039A1, “NUCLEOSIDES FOR TREATING CANCER” (PRIMEFOUR THERAPEUTICS, INC., priority 2022, published 2025)
